Test results: article PMC7414322 (Bioorganic & Medicinal Chemistry Letters, 2020)
Where two headings read alike, the source gives them in different places.

Key:
hERG = hERG (Homo sapiens, UniProt Q12809)
in vivo = settings: rat, po, 5 mg/kg
[1] = human, microsomes
[2] = mouse, microsomes

Sequence of hERG (Q12809 whole entry): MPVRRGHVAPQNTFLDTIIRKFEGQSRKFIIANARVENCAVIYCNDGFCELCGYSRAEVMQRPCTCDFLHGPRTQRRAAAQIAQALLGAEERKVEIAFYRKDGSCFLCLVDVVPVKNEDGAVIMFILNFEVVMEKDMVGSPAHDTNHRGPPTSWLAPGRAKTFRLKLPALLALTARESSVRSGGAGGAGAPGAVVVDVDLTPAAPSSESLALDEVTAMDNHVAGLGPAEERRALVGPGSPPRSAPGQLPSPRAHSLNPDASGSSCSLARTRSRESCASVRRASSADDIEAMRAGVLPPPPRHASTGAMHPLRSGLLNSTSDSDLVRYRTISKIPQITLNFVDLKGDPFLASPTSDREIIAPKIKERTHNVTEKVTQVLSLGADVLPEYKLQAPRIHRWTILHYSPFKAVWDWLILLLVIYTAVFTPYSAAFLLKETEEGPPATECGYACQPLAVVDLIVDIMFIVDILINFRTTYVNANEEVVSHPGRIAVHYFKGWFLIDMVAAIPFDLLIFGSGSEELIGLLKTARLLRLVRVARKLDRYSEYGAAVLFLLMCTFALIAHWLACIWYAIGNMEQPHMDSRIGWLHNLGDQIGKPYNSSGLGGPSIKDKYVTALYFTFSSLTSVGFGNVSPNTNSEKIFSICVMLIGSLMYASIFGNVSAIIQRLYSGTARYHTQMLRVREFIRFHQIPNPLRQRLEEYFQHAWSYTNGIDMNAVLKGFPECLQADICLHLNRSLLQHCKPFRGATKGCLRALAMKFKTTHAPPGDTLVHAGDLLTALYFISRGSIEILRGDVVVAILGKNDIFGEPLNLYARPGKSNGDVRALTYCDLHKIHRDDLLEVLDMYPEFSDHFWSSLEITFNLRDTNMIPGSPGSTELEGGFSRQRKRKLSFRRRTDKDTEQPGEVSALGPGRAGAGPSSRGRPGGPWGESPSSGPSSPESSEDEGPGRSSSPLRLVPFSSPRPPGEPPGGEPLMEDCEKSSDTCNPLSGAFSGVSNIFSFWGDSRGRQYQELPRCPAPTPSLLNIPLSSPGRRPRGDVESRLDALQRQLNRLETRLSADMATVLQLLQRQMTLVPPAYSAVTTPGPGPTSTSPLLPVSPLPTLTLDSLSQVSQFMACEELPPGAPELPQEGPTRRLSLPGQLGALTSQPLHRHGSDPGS

In the case of `N#Cc1ccccc1CNc1ccc2ncnc(Nc3ccc(F)c(Cl)c3)c2c1` [Compound 19], the “Inhibitory effect on MERS-CoV infection, in words” value (from here on “Inhibitory effect”) (MERS-CoV) was “no inhibitory effect”.

For `Fc1ccc(Nc2ncnc3ccc(NC4CCCCC4)cc23)cc1Cl` [Compound 25], the “Inhibitory effect” value (MERS-CoV) was “little inhibitory effects”.

For `N#Cc1cccc(CNc2ccc3ncnc(Nc4ccc(F)c(Cl)c4)c3c2)c1` [Compound 20], the “Cytotoxicity, in words” value (HFL-1) was “no cytotoxicity”, the “Cytotoxicity HFL-1” value (HFL-1; human) was >100 µM and the “hERG binding, in words” value (hERG) was “no hERG binding”. For the same compound, the “Cytotoxicity, in words” value (Vero) was “no cytotoxicity”, the “Cytotoxicity Vero” value (Vero; African green monkey) was >100 µM and the Cmax (in vivo) was 200 ng/mL. For the same compound, the “Microsomal stability, in words” value [1] was “good microsomal stability”, the “Cytotoxicity, in words” value (L929) was “no cytotoxicity” and the “Cytotoxicity L929” value (L929; mouse) was >100 µM. For the same compound, the “Microsomal stability, in words” value [2] was “good microsomal stability”, the “Cytotoxicity, in words” value (CHO-K1) was “no cytotoxicity” and the “Cytotoxicity CHO-K1” value (CHO-K1; Chinese hamster) was >100 µM. The “Cytotoxicity, in words” value (NIH 3T3) was “no cytotoxicity” and the “Cytotoxicity NIH 3T3” value (NIH 3T3; mouse) was >100 µM.

With `N#Cc1ccccc1CNc1ccc2ncnc(Nc3ccc(C(F)(F)F)cc3)c2c1` [Compound 31] the “Inhibitory effect” value (MERS-CoV) was “decreased potency”.

In the case of `COc1cccc(CNc2ccc3ncnc(Nc4ccc(C#N)cc4)c3c2)c1` [Compound 9], the “Inhibitory effect” value (MERS-CoV) was “reduced potency compared to 1”.

For `COc1cccc(CNc2ccc3ncnc(Nc4ccc(Br)cc4)c3c2)c1` [Compound 6], the “Inhibitory effect” value (MERS-CoV) was “maintained the potency”.

With `COc1cccc(CNc2ccc3ncnc(Nc4cccc(Cl)c4)c3c2)c1` [Compound 8] the “Inhibitory effect” value (MERS-CoV) was “reduced potency compared to 1”.

For `N#Cc1cccc(CNc2cc3c(Nc4ccc(F)c(Cl)c4)ncnc3cc2O)c1` [Compound 30], the “Inhibitory effect” value (MERS-CoV) was “no inhibitory effects”.

With `COc1cccc(CNc2ccc3ncnc(Nc4ccc(C(F)(F)F)cc4)c3c2)c1` [Compound 11] the “Inhibitory effect” value (MERS-CoV) was “slightly improve the potency”.

With `COc1cccc(CNc2ccc3ncnc(Nc4ccc(F)cc4)c3c2)c1` [Compound 7] the “Inhibitory effect” value (MERS-CoV) was “reduced potency compared to 1”.
